PubChem BioAssay (NCI)
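1) Cells in 96-well plates. 2) Compound, 48 h, 5 concentrations. 3) Linear interpolation between surrounding doses. 4) Unreached endpoint = highest concentration. GI50 is the concentration that inhibits growth by half. At the TGI there is no net growth.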

Columns and labels:
Experiment in all cases: NCI tumour cell line growth inhibition, 48 h
CCRF-CEM leukemia = tested on: CCRF-CEM leukemia
LOX IMVI melanoma = tested on: LOX IMVI melanoma
HL-60(TB) leukemia = tested on: HL-60(TB) leukemia
SN12C renal = tested on: SN12C renal
HCT-15 colon = tested on: HCT-15 colon
EKVX NSCLC = tested on: EKVX NSCLC
DMS 114 small cell lung = tested on: DMS 114 small cell lung
RPMI-8226 leukemia = tested on: RPMI-8226 leukemia
SF-295 CNS = tested on: SF-295 CNS
DMS 273 small cell lung = tested on: DMS 273 small cell lung
A549 NSCLC = tested on: A549 NSCLC
SNB-78 CNS = tested on: SNB-78 CNS
TK-10 renal = tested on: TK-10 renal
NCI-H522 lung = tested on: NCI-H522 lung
A498 renal = tested on: A498 renal
HOP-92 NSCLC = tested on: HOP-92 NSCLC
SNB-75 CNS = tested on: SNB-75 CNS
SK-MEL-28 melanoma = tested on: SK-MEL-28 melanoma
K-562 leukemia = tested on: K-562 leukemia
DLD-1 colon = tested on: DLD-1 colon
SK-OV-3 ovarian = tested on: SK-OV-3 ovarian
RXF 393 renal = tested on: RXF 393 renal
NCI-H23 lung = tested on: NCI-H23 lung
MOLT-4 leukemia = tested on: MOLT-4 leukemia
KM12 colon = tested on: KM12 colon
UO-31 renal = tested on: UO-31 renal
UACC-62 melanoma = tested on: UACC-62 melanoma
COLO 205 colon = tested on: COLO 205 colon
UACC-257 melanoma = tested on: UACC-257 melanoma
OVCAR-4 ovarian = tested on: OVCAR-4 ovarian
IGROV1 ovarian = tested on: IGROV1 ovarian
U251 CNS = tested on: U251 CNS
HOP-18 NSCLC = tested on: HOP-18 NSCLC
SF-539 CNS = tested on: SF-539 CNS
M14 melanoma = tested on: M14 melanoma
SW-620 colon = tested on: SW-620 colon
KM20L2 colon = tested on: KM20L2 colon
ACHN renal = tested on: ACHN renal
OVCAR-3 ovarian = tested on: OVCAR-3 ovarian
SK-MEL-5 melanoma = tested on: SK-MEL-5 melanoma
CAKI-1 renal = tested on: CAKI-1 renal
SF-268 CNS = tested on: SF-268 CNS
SNB-19 CNS = tested on: SNB-19 CNS
LXFL 529 NSCLC = tested on: LXFL 529 NSCLC
HCT-116 colon = tested on: HCT-116 colon
NCI-H460 lung = tested on: NCI-H460 lung
NCI-H226 lung = tested on: NCI-H226 lung
OVCAR-5 ovarian = tested on: OVCAR-5 ovarian
HT29 colon = tested on: HT29 colon
XF 498 CNS = tested on: XF 498 CNS
OVCAR-8 ovarian = tested on: OVCAR-8 ovarian
HOP-62 NSCLC = tested on: HOP-62 NSCLC
HCC-2998 colon = tested on: HCC-2998 colon
SR leukemia = tested on: SR leukemia
MALME-3M melanoma = tested on: MALME-3M melanoma
M19-MEL melanoma = tested on: M19-MEL melanoma
786-0 renal = tested on: 786-0 renal
SK-MEL-2 melanoma = tested on: SK-MEL-2 melanoma

Work on N/C(=C\c1ccc(/C=C(\NC(=O)c2ccccc2)c2nc3c([nH]2)C(=O)c2ccccc2C3=O)cc1)c1nc2c([nH]1)C(=O)c1ccccc1C2=O yielded a TGI (CCRF-CEM leukemia) of 57.2 µM, a TGI (LOX IMVI melanoma) of 47.1 µM and a TGI (HL-60(TB) leukemia) of 38.3 µM. For the same compound, the TGI (SN12C renal) was 32.8 µM, the TGI (HCT-15 colon) was 37.7 µM and the TGI (EKVX NSCLC) was 55.7 µM. The TGI (DMS 114 small cell lung) was 22.9 µM, the TGI (RPMI-8226 leukemia) was 26.1 µM and the TGI (SF-295 CNS) was 30.9 µM. The TGI (DMS 273 small cell lung) was 42.1 µM, the TGI (A549 NSCLC) was 36.5 µM and the TGI (SNB-78 CNS) was 63.1 µM. For the same compound, the TGI (TK-10 renal) was 51.7 µM, the TGI (NCI-H522 lung) was 29.8 µM and the TGI (A498 renal) was 29.9 µM. It also gave a TGI (HOP-92 NSCLC) of 22.2 µM, a TGI (SNB-75 CNS) of 18.8 µM and a TGI (SK-MEL-28 melanoma) of 31.3 µM. It also gave a TGI (K-562 leukemia) of 43.5 µM, a TGI (DLD-1 colon) of 33 µM and a TGI (SK-OV-3 ovarian) of 48.8 µM. For the same compound, the TGI (RXF 393 renal) was 26.2 µM, the TGI (NCI-H23 lung) was 32.8 µM and the TGI (MOLT-4 leukemia) was 29.3 µM. For the same compound, the TGI (KM12 colon) was 29 µM, the TGI (UO-31 renal) was 17.7 µM and the TGI (UACC-62 melanoma) was 27.8 µM. The TGI (COLO 205 colon) was 29.9 µM, the TGI (UACC-257 melanoma) was 36.2 µM and the TGI (OVCAR-4 ovarian) was 34 µM. The TGI (IGROV1 ovarian) was 40.3 µM, the TGI (U251 CNS) was 33.6 µM and the TGI (HOP-18 NSCLC) was 28.4 µM. The TGI (SF-539 CNS) was 30.2 µM, the TGI (M14 melanoma) was 30.4 µM and the TGI (SW-620 colon) was 50.5 µM. For the same compound, the TGI (KM20L2 colon) was 36.2 µM, the TGI (ACHN renal) was 52.6 µM and the TGI (OVCAR-3 ovarian) was 57.3 µM. For the same compound, the TGI (SK-MEL-5 melanoma) was 31.5 µM, the TGI (CAKI-1 renal) was 60.7 µM and the TGI (SF-268 CNS) was 30.6 µM. The TGI (SNB-19 CNS) was 28.4 µM, the TGI (LXFL 529 NSCLC) was 24.6 µM and the TGI (HCT-116 colon) was 29.5 µM. It also gave a TGI (NCI-H460 lung) of 36.4 µM, a TGI (NCI-H226 lung) of 27 µM and a TGI (OVCAR-5 ovarian) of 40.5 µM. The TGI (HT29 colon) was 32.4 µM, the TGI (XF 498 CNS) was 24.3 µM and the TGI (OVCAR-8 ovarian) was 61.8 µM.
C[N+]1(CCNP(=S)(NCC[N+]2(C)Cc3c(ccc4c3OCO4)C3C2c2cc4c(cc2C[C@@H]3O)OCO4)NCC[N+]2(C)Cc3c(ccc4c3OCO4)C3C2c2cc4c(cc2C[C@@H]3O)OCO4)Cc2c(ccc3c2OCO3)C2C1c1cc3c(cc1C[C@H]2O)OCO3 (some centres not stated) gave a TGI (CCRF-CEM leukemia) greater than 383 µM, a GI50 (LOX IMVI melanoma) of 1.92 µM and a GI50 (HOP-62 NSCLC) of 7.52 µM. It also gave a GI50 (HL-60(TB) leukemia) of 1.02 µM, a GI50 (SN12C renal) of 3.84 µM and a TGI (HCT-15 colon) of less than 0.00191 µM. The GI50 (EKVX NSCLC) was 45.9 µM, the TGI (RPMI-8226 leukemia) was less than 0.00191 µM and the GI50 (SF-295 CNS) was 1.43 µM. It also gave a GI50 (HCC-2998 colon) of 5.22 µM, a GI50 (SR leukemia) of 1.75 µM and a TGI (DMS 273 small cell lung) of less than 0.00191 µM. It also gave a GI50 (A549 NSCLC) of 2.89 µM, a GI50 (SNB-78 CNS) of 2.7 µM and a GI50 (TK-10 renal) of 8.2 µM. The GI50 (NCI-H522 lung) was 2.55 µM, the GI50 (A498 renal) was 1.54 µM and the GI50 (HOP-92 NSCLC) was 3.43 µM. It also gave a GI50 (SNB-75 CNS) of 1.18 µM, a GI50 (SK-MEL-28 melanoma) of 3.51 µM and a GI50 (K-562 leukemia) of 2.32 µM. It also gave a GI50 (DLD-1 colon) of 1.68 µM, a GI50 (SK-OV-3 ovarian) of 2.96 µM and a GI50 (RXF 393 renal) of 1.76 µM. For the same compound, the GI50 (NCI-H23 lung) was 2.25 µM, the GI50 (MALME-3M melanoma) was 2.09 µM and the GI50 (KM12 colon) was 1.78 µM. It also gave a GI50 (UO-31 renal) of 4.3 µM, a GI50 (UACC-62 melanoma) of 1.23 µM and a GI50 (COLO 205 colon) of 1.65 µM. The GI50 (UACC-257 melanoma) was 1.44 µM, the GI50 (OVCAR-4 ovarian) was 4.74 µM and the GI50 (IGROV1 ovarian) was 4.9 µM. The GI50 (U251 CNS) was 1.99 µM, the GI50 (HOP-18 NSCLC) was 45.2 µM and the GI50 (SF-539 CNS) was 1.99 µM. The TGI (M14 melanoma) was less than 0.00191 µM, the GI50 (SW-620 colon) was 1.4 µM and the GI50 (KM20L2 colon) was 2.13 µM. The GI50 (ACHN renal) was 4.16 µM, the GI50 (OVCAR-3 ovarian) was 1.68 µM and the GI50 (M19-MEL melanoma) was 2.04 µM. The GI50 (SK-MEL-5 melanoma) was 1.89 µM, the TGI (CAKI-1 renal) was 69.5 µM and the GI50 (SF-268 CNS) was 6.67 µM. It also gave a GI50 (SNB-19 CNS) of 7.66 µM, a GI50 (LXFL 529 NSCLC) of 2.75 µM and a GI50 (HCT-116 colon) of 1.43 µM. It also gave a GI50 (786-0 renal) of 5.22 µM, a GI50 (NCI-H460 lung) of 0.976 µM and a TGI (NCI-H226 lung) of 79.6 µM. For the same compound, the TGI (OVCAR-5 ovarian) was less than 0.00191 µM, the GI50 (HT29 colon) was 1.34 µM and the TGI (SK-MEL-2 melanoma) was less than 0.00191 µM. For the same compound, the GI50 (XF 498 CNS) was 0.846 µM and the TGI (OVCAR-8 ovarian) was less than 0.00191 µM.
